The procedure of the series: Solubility indicates the result of measurement based on the final volume of water added to a sample when it is visually confirmed that the sample is completely dissolved by adding water to the sample. The solubility of the actual sample may be higher than the measured solubility. Solubility was measured based on the final volume of water added to a sample when it was visually confirmed that the sample was completely dissolved by adding water to the sample.

The structures appear in SMILES notation.

As to `CC(C)C(=O)N([C@H]1C[C@@H](C(=O)N2CCOCC2)N(C(=O)[C@@H]2CN(C(C)(C)C)C[C@H]2c2ccc(Cl)cc2)C1)[C@H]1CC[C@@H](C)CC1.O=S(=O)(O)O` [Example 2, N-((3S,5S)-1-((3S,4R)-1-(tert-butyl)-4-(4-chlorophenyl)pyrrolidine-3-carbonyl)-5-(morpholine-4-carbonyl)pyrrolidin-3-yl)-N-((1 s,4R)-4-methylcyclohexyl)isobutyramide sulfate], the solubility result is given as “more than 56 mg/mL”.

The record behind these values is patent US20240239782A1, “SULFATE CRYSTALS OF MELANOCORTIN RECEPTOR AGONIST COMPOUND AND METHOD OF PRODUCING SAME” (LG CHEM, LTD., priority 2021, published 2024).
